# Source: paper PMC4208851, “Development of Nanoparticles Incorporating a Novel Liposomal Membrane Destabilization Peptide for Efficient Release of Cargos into Cancer Cells” (PLoS ONE, 2014)
# Where no end group is shown, it is not given here.
# Molecular target: T1, γ-secretase (Homo sapiens, UniProt P49768)
# T1 construct: The solubilized membrane preparations of A549 (16.5 µg total protein) were incubated with 100 µM LMDP or LMDP-lipo; endogenous in cells; host or cells: A549 cells, CHAPSO-solubilized membrane fraction
# Assay: Cleavage of fluorescence-quenching substrate peptide probe by γ-secretase in solubilized A549 membrane fraction (competitive inhibition / inhibitor test)
# Format: biochemical
# Description: The membrane fraction was prepared according to previous reports. All procedures were carried out on ice. Cultured HeLa cells, A549 cells, MCF-7 cells and HUEhT-2 cells (about 1×10^8 cells) were pelleted. Cells were resuspended in a buffer containing 20 mM Hepes, pH 7.5, 50 mM KCl, 2 mM EGTA, and protease inhibitor cocktail, Complete Mini (Roche Applied Science), and homogenized using 15 strokes of a Dounce homogenizer with a tight pestle. The cellular homogenates were centrifuged at 800 × g for 10 min and rehomogenized as above. […] The total protein concentration was determined with a BCA Protein Assay Kit (Thermo scientific).
# To measure γ-secretase activity, solubilized membrane preparations ([…] total protein) were incubated with eight µM fluorescence-quenching peptide substrate at 37°C overnight and centrifuged at 16,100 × g for 15 min. The fluorescence of supernatants was measured by Plate Infinite M200 (TECAN) with an excitation wavelength of 355 nm and emission wavelength of 440 nm.
# To study LMDP cleavage by γ-secretase, the competitive inhibitory effect of LMDP or LMDP-lipo on the cleavage of the peptide substrate (the same as that used in 2.2) was evaluated. […] Then, the fluorescence intensity was measured as described in 2.2. […]
Compound,"Inhibition of γ-secretase activity (A549 membrane fraction preincubated with DAPT 37°C 30 min, then substrate peptide probe 37°C overnight (Fig. S3))","IC50 (A549 solubilized membrane 16.5 µg protein, 5 µM peptide substrate, 0-100 µM LMDP, 37°C overnight, fluorescence ex 355/em 440 nm, n = 3, read-out: IC50, competitive inhibition of cleavage of fluorescent substrate peptide probe) [µM]"
"C[C@H](NC(=O)Cc1cc(F)cc(F)c1)C(=O)N[C@H](C(=O)OC(C)(C)C)c1ccccc1 [DAPT, N-[N-(3,5-Difluorophenacetyl)-L-alanyl]-S-phenylglycine t-butyl ester]",about 60%,–
LHLMYVAAAAFVLLFFVGCGVLLSRKRRR [LMDP],–,29
